Assay results: ChEMBL document CHEMBL3244111, “Nitrones. 7. alpha-Quinoxalinyl-N-substituted nitrone 1,4-dioxides” (J Med Chem, 1977)
The source made the active and inactive calls. The calls are words filed in the database; no cut-off is given here.

Experiments:
Salmonella typhimurium = test: In vivo antibacterial activity against Salmonella typhimurium infected in CF1 mouse assessed as protection against bacterial infection administered as two doses; type: functional, Salmonella enterica subsp. enterica serovar Typhimurium; conditions: Salmonella enterica
Salmonella [1] = test: In vivo antibacterial activity against Salmonella typhosa infected in CF1 mouse assessed as protection against bacterial infection administered as two doses; type: functional
Streptococcus pneumoniae = test: In vivo antibacterial activity against Diplococcus pneumoniae I infected in CF1 mouse assessed as protection against bacterial infection administered as two doses; type: functional
Listeria monocytogenes = test: In vivo antibacterial activity against Listeria monocytogenes infected in CF1 mouse assessed as protection against bacterial infection administered as two doses; type: functional
Staphylococcus aureus = test: In vivo antibacterial activity against Staphylococcus aureus infected in CF1 mouse assessed as protection against bacterial infection administered as two doses; type: functional
Streptococcus pyogenes = test: In vivo antibacterial activity against Streptococcus pyogenes infected in CF1 mouse assessed as protection against bacterial infection administered as two doses; type: functional
[2] = Acute toxicity in po dosed mouse administered as single dose; type: organism-based; conditions: in vivo
[3] = Acute toxicity in sc dosed mouse administered as single dose; type: organism-based; conditions: in vivo
Histomonas meleagridis = test: In vivo antiprotozoal activity against Histomonas meleagridis infected in turkey; type: functional, organism-based
Shigella flexneri = test: In vivo antibacterial activity against Shigella paradysenteriae infected in CF1 mouse assessed as protection against bacterial infection administered as two doses; type: functional
Escherichia coli = test: In vivo antibacterial activity against Escherichia coli infected in CF1 mouse assessed as protection against bacterial infection administered as two doses; type: functional
Klebsiella pneumoniae = test: In vivo antibacterial activity against Klebsiella pneumoniae infected in CF1 mouse assessed as protection against bacterial infection administered as two doses; type: functional
Pasteurella multocida = test: In vivo antibacterial activity against Pasteurella multocida infected in CF1 mouse assessed as protection against bacterial infection administered as two doses; type: functional
Proteus mirabilis = test: In vivo antibacterial activity against Proteus mirabilis infected in CF1 mouse assessed as protection against bacterial infection administered as two doses; type: functional
Pseudomonas aeruginosa = test: In vivo antibacterial activity against Pseudomonas aeruginosa infected in sc dosed CF1 mouse assessed as protection against bacterial infection administered as two doses; type: functional
Salmonella enteritidis = test: In vivo antibacterial activity against Salmonella enteriditis infected in CF1 mouse assessed as protection against bacterial infection administered as two doses; type: functional, Salmonella enterica subsp. enterica serovar Enteritidis; conditions: Salmonella enterica
Salmonella [4] = test: In vivo antibacterial activity against Salmonella schottmuelleri infected in CF1 mouse assessed as protection against bacterial infection administered as two doses; type: functional
Shigella dysenteriae = test: In vivo antibacterial activity against Shigella dysenteriae infected in CF1 mouse assessed as protection against bacterial infection administered as two doses; type: functional
[5] = Acute toxicity in ip dosed mouse administered as single dose; type: organism-based; conditions: in vivo
Proteus vulgaris = test: In vivo antibacterial activity against Proteus vulgaris infected in CF1 mouse assessed as protection against bacterial infection administered as two doses; type: functional

| SMILES | ED50 (Salmonella typhimurium) | ED50 (Salmonella [1]) | ED50 (Streptococcus pneumoniae) | ED50 (Listeria monocytogenes) | ED50 (Staphylococcus aureus) | ED50 (Streptococcus pyogenes) | LD50 [2] | LD50 [3] | Activity (Histomonas meleagridis) | ED50 (Shigella flexneri) | ED50 (Escherichia coli) | ED50 (Klebsiella pneumoniae) | ED50 (Pasteurella multocida) | ED50 (Proteus mirabilis) | ED50 (Pseudomonas aeruginosa) | ED50 (Salmonella enteritidis) | ED50 (Salmonella [4]) | ED50 (Shigella dysenteriae) | LD50 [5] | ED50 (Proteus vulgaris) |
| --- | --- | --- | --- | --- | --- | --- | --- | --- | --- | --- | --- | --- | --- | --- | --- | --- | --- | --- | --- | --- |
| O=[N+]([O-])c1ccc(/C=[N+](/[O-])CCO)o1 [NIFURATRONE] | 30 mg/kg | 31 mg/kg | > 100 mg/kg | > 100 mg/kg | 26 mg/kg | 47 mg/kg | 518 mg/kg | 417 mg/kg | inactive | 46 mg/kg | 27 mg/kg | 39 mg/kg | < 50 mg/kg | 53 mg/kg | > 100 mg/kg | 47 mg/kg | 8 mg/kg | – | – | – |
| Cc1c(/C=[N+](\C)[O-])[n+]([O-])c2ccccc2[n+]1[O-] | 16 mg/kg | 10 mg/kg | 32 mg/kg | > 100 mg/kg | 74 mg/kg | 35 mg/kg | > 1000 mg/kg | 596 mg/kg | inactive | 13 mg/kg | 10 mg/kg | 6 mg/kg | 7 mg/kg | 18 mg/kg | > 250 mg/kg | 2 mg/kg | 1.5 mg/kg | 62 mg/kg | 596 mg/kg | 35 mg/kg |
| O=C(N[C@H](CO)[C@H](O)c1ccc([N+](=O)[O-])cc1)C(Cl)Cl [CHLORAMPHENICOL] | 16 mg/kg | 24 mg/kg | – | > 100 mg/kg | 27 mg/kg | 27 mg/kg | 2640 mg/kg | – | inactive | – | 41 mg/kg | 20 mg/kg | 11 mg/kg | 52 mg/kg | – | 29 mg/kg | 9 mg/kg | 61 mg/kg | 1320 mg/kg | > 100 mg/kg |
